In article PMC4669708 (Cell Death & Disease, 2015):

Target: T1, GAK (Homo sapiens, UniProt O14976)
T1 sequence (O14976 1-1311): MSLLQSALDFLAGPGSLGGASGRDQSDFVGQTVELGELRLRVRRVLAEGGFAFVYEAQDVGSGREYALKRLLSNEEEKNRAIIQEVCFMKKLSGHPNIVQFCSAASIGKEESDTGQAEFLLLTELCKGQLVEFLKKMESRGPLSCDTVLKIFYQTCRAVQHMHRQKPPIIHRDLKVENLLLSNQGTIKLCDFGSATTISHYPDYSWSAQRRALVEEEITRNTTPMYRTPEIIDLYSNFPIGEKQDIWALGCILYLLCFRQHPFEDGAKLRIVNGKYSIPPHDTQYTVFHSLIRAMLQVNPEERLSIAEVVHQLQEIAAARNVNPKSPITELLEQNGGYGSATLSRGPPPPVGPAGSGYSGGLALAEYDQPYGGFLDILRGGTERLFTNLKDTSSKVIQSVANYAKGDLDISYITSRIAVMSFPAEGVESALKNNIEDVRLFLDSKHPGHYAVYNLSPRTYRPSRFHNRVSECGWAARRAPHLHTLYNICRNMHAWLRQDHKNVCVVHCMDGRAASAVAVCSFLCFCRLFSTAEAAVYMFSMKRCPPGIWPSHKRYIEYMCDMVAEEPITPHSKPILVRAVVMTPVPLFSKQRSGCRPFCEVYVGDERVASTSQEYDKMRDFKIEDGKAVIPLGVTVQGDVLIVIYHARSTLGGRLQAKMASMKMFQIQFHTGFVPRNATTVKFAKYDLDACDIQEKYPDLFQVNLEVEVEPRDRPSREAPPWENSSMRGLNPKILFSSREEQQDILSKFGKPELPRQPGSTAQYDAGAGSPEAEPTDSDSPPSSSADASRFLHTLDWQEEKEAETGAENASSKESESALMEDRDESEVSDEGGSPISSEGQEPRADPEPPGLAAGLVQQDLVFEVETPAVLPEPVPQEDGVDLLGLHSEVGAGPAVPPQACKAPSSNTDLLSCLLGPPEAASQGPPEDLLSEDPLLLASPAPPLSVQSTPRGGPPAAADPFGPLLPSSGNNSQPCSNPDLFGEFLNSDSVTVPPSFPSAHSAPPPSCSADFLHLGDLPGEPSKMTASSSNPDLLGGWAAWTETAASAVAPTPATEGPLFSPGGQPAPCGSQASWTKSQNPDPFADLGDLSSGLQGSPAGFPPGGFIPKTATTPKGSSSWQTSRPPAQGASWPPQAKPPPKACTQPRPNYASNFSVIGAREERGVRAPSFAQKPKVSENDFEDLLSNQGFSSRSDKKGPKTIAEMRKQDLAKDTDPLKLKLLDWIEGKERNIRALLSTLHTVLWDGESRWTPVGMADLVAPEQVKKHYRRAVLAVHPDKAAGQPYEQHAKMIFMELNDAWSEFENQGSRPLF
Assay: c-ponatinib pulldown LC-MS/MS
Type: binding
How it was run: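 Spectral counts and search-engine scores from LC-MS/MS of tryptic eluates gave drug-protein specificity P-values. Eluates came from duplicate pulldowns of 10 mg lysate on 25 nmol immobilized c-ponatinib. Competition was the ratio of median counts with versus without free compound.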

Which results are given for `Cc1ccc(C(=O)Nc2ccc(CN3CCN(CCCN)CC3)c(C(F)(F)F)c2)cc1C#Cc1cnc2cccnn12` [c-ponatinib]?
Av. SC comp. (+ free ponatinib): 10.25; Total SC comp. (+ free ponatinib): 41; Av. SC (no competitor): 22.75; Total SC (no competitor): 91
